Measurements from ChEMBL document CHEMBL5143621, “Design, synthesis, and biological evaluation of β-carboline 1,3,4-oxadiazole based hybrids as HDAC inhibitors with potential antitumor effects” (Bioorg Med Chem Lett, 2022).
Each block holds one compound with its values, some of them ahead of it. The source made the active and inactive calls. The calls are words filed in the database; no cut-off is given here.

What was measured:
[1] = system: HCT-116; experiment: Antiproliferative activity against human HCT-116 cells assessed as inhibition of cell proliferation incubated for 72 hrs by MTT assay; assay type: functional, cell-based; settings: HCT-116, 72 h
[2] = target: Histone deacetylase 1 (Homo sapiens, UniProt Q13547); experiment: Inhibition of HDAC1 (unknown origin)
Chain of Histone deacetylase 1 (Q13547 whole entry): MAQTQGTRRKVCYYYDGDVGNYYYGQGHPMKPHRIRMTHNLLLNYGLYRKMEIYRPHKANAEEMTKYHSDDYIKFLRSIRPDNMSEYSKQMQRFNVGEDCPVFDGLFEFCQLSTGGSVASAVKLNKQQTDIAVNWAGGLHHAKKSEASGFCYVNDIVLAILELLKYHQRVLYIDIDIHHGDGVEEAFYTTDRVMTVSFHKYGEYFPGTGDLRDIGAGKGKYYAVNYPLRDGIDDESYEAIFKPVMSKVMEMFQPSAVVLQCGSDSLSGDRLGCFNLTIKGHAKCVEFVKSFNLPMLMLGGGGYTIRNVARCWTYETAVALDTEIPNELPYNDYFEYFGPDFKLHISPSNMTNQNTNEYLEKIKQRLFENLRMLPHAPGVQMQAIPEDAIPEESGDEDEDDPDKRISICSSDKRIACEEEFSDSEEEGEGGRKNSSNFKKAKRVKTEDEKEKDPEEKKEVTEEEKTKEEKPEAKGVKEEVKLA

[3] = system: HCT-116; experiment: Inhibition of colony formation in human HCT-116 cell incubated for 48 hrs by crystal violet staining based analysis; assay type: functional; settings: dose 125-500 nM, DDE = dose-dependent effect
[4] = system: HCT-116; experiment: Induction of apoptosis in human HCT-116 cells assessed as increase in number of brilliant blue apoptotic cells at 125 to 500 nM incubated for 48 hrs by Hoechst 33342 staining based fluorescence microscopic analysis; assay type: functional, cell-based; settings: dose 125-500 nM
[5] = in vitro; settings: human, L02 cells
Description: Cytotoxicity against human L02 cells assessed as inhibition of cell proliferation incubated for 72 hrs by MTT assay

[6] = system: HCT-116; experiment: Inhibition of cell migration in human HCT-116 cells incubated for 48 hrs by wound healing scratch assay; assay type: functional, cell-based; settings: dose 125-500 nM, DDE = dose-dependent effect
[7] = target: Histone deacetylase 2 (Homo sapiens, UniProt Q92769); experiment: Inhibition of HDAC2 (unknown origin)
Chain of Histone deacetylase 2 (Q92769 whole entry): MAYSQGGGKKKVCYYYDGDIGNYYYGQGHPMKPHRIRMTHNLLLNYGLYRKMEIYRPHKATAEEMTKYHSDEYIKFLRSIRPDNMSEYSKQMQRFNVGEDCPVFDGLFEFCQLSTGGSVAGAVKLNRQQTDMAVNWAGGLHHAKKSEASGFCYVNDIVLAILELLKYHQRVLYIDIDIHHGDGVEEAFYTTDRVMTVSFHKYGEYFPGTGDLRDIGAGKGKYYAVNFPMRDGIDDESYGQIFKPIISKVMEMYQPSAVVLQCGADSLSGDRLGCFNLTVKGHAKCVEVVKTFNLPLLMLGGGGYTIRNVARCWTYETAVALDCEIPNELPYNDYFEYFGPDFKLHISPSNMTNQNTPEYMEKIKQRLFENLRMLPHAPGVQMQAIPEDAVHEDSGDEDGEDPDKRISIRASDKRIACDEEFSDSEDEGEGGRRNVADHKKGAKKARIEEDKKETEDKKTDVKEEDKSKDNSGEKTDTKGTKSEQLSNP

[8] = target: T1, Protein deacetylase HDAC6 (Homo sapiens, UniProt Q9UBN7); experiment: Inhibition of HDAC6 (unknown origin)
T1 sequence (Q9UBN7 whole entry): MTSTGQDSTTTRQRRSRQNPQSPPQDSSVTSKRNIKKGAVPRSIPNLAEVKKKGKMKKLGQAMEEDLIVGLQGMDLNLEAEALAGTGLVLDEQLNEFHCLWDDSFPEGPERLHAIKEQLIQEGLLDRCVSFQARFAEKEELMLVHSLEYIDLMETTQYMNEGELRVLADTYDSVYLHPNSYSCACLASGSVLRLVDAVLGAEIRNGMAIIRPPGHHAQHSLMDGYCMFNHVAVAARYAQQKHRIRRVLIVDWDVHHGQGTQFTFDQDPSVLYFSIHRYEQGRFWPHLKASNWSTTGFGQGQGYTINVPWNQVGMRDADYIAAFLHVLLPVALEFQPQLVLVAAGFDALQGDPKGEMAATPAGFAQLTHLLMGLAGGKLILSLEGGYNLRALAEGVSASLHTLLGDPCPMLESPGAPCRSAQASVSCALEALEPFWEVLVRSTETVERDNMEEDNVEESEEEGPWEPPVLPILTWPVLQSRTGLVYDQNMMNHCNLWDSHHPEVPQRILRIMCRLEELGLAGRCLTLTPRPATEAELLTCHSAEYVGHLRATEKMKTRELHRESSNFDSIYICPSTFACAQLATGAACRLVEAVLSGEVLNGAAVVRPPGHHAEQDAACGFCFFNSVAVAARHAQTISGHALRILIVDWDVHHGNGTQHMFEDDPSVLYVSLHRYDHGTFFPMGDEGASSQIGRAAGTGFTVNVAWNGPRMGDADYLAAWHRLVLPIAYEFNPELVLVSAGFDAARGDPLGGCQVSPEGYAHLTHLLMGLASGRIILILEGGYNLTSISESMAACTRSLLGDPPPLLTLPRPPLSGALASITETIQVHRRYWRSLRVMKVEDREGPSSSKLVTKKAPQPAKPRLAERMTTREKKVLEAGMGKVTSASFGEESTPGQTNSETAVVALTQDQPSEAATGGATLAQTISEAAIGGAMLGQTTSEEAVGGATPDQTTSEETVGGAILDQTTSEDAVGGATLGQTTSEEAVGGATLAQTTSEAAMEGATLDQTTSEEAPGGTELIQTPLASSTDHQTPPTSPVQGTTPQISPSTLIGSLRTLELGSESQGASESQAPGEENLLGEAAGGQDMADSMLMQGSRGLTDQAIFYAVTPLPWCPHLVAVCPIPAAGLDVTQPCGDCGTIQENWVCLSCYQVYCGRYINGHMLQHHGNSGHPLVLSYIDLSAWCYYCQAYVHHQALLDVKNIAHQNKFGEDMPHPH

[9] = system: SW480; experiment: cells; assay type: functional, cell-based; settings: Homo sapiens, SW480, 72 h
Description: Antiproliferative activity against human SW480 cells assessed as inhibition of cell proliferation incubated for 72 hrs by MTT assay

[10] = target: Histone deacetylase 3 (Homo sapiens, UniProt O15379); experiment: Inhibition of HDAC3 (unknown origin)
Chain of Histone deacetylase 3 (O15379 whole entry): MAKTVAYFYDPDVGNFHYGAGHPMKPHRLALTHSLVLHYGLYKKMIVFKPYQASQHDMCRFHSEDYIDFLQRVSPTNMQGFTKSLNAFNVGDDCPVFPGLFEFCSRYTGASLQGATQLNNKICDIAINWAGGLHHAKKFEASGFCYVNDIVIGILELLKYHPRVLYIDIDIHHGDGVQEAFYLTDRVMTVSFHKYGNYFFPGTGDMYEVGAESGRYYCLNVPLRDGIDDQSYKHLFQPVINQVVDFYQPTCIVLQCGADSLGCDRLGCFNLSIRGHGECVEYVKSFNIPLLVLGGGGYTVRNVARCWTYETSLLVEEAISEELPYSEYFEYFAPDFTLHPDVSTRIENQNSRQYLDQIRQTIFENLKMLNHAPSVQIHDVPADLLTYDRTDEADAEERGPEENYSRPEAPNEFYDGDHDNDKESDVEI

[11] = system: MCF7; experiment: cells; assay type: functional, cell-based; settings: Homo sapiens, MCF7, 72 h
Description: Antiproliferative activity against human MCF7 cells assessed as inhibition of cell proliferation incubated for 72 hrs by MTT assay

[12] = system: A549; experiment: cells; assay type: functional, cell-based; settings: Homo sapiens, A549, 72 h
Description: Antiproliferative activity against human A549 cells assessed as inhibition of cell proliferation incubated for 72 hrs by MTT assay

[13] = system: HCT-116; experiment: Induction of apoptosis in human HCT-116 cells at 125 to 500 nM incubated for 48 hrs by AnnexinV-FITC/PI staining based flow cytometry; assay type: functional, cell-based; settings: dose 125-500 nM
[14] = target: T2, Histone deacetylase 8 (Homo sapiens, UniProt Q9BY41); experiment: Inhibition of HDAC8 (unknown origin)
T2 sequence (Q9BY41 whole entry): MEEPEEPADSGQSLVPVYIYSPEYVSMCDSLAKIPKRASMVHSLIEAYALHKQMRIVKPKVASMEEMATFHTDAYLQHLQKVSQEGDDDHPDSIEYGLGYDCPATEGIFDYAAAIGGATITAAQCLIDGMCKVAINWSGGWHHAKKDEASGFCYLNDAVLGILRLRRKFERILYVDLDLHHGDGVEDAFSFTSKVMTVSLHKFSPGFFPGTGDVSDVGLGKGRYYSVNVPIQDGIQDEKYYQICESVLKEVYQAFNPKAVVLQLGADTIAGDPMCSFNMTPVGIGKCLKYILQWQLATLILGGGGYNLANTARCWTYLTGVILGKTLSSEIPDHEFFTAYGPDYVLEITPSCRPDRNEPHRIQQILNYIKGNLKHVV

IC50 [1]: > 10000 nM
IC50 [2]: > 600 nM
SMILES: Nc1ccccc1NC(=O)c1ccc(-c2nnc(-c3cc4c([nH]c5ccccc54)c(-c4ccc(C(F)(F)F)cc4)n3)o2)cc1

IC50 [1]: 1850 nM
SMILES: COc1cc(-c2nc(-c3nnc(CCCC(=O)NO)o3)cc3c2[nH]c2ccccc23)cc(OC)c1OC

IC50 [1]: 173 nM
IC50 at 72 h [5]: > 10000 nM
IC50 [7]: 2.2 nM
IC50 [8]: 6 nM
IC50 [9]: 382 nM
IC50 [10]: 3.4 nM
IC50 [11]: 695 nM
IC50 [2]: 2.2 nM
IC50 [12]: 1740 nM
IC50 [14]: > 600 nM
SMILES: O=C(CCCCc1nnc(-c2cc3c([nH]c4ccccc43)c(-c3ccc(C(F)(F)F)cc3)n2)o1)NO
inhibition [3]: Dde
Activity [4]: Active
inhibition [6]: Dde
Activity [13]: Active

IC50 [1]: 1360 nM
SMILES: O=C(CCCc1nnc(-c2cc3c([nH]c4ccccc43)c(-c3ccc(C(F)(F)F)cc3)n2)o1)NO

IC50 [1]: 7180 nM
SMILES: O=C(CCCc1nnc(-c2cc3c([nH]c4ccccc43)c(-c3ccccc3)n2)o1)NO

IC50 [1]: > 10000 nM
SMILES: COc1cc(-c2nc(-c3nnc(-c4ccc(C(=O)NO)cc4)o3)cc3c2[nH]c2ccccc23)cc(OC)c1OC

IC50 [1]: 247 nM
IC50 [11]: 3760 nM
IC50 [2]: 1.2 nM
IC50 [12]: < 5000 nM
SMILES: O=C(CCCCc1nnc(-c2cc3c([nH]c4ccccc43)c(-c3ccccc3)n2)o1)NO

IC50 [1]: 2310 nM
SMILES: O=C(CCc1nnc(-c2cc3c([nH]c4ccccc43)c(-c3ccc(C(F)(F)F)cc3)n2)o1)NO

IC50 [1]: 9400 nM
SMILES: O=C(NO)c1ccc(-c2nnc(-c3cc4c([nH]c5ccccc54)c(-c4ccc(C(F)(F)F)cc4)n3)o2)cc1

IC50 [1]: 6970 nM
SMILES: COc1cc(-c2nc(-c3nnc(CCC(=O)NO)o3)cc3c2[nH]c2ccccc23)cc(OC)c1OC

IC50 [1]: > 10000 nM
SMILES: O=C(CCc1nnc(-c2cc3c([nH]c4ccccc43)c(-c3ccccc3)n2)o1)NO

IC50 [1]: 190 nM
IC50 [7]: 1.2 nM
IC50 [8]: 7.3 nM
IC50 [10]: 3.6 nM
IC50 [11]: 541 nM
IC50 [2]: 1.4 nM
IC50 [12]: 1340 nM
IC50 [14]: > 600 nM
SMILES: COc1cc(-c2nc(-c3nnc(CCCCC(=O)NO)o3)cc3c2[nH]c2ccccc23)cc(OC)c1OC
